Measurements reported in patent publication US10155021B2, “Antimicrobial 4-oxoquinolizines” (Emergent Product Development Gaithersburg Inc., priority 2011, dated 2018).
Values after ≈ are worked out from the molar mass of the structure shown. Read-outs that look alike come from different tables or passages of the source.

Columns and labels:
[1] = test system: A. baumannii ATCC 19606; test: MIC determination for Acinetobacter strains (Example 3); format: cell-based; conditions: ATCC19606, reference strain
[2] = test system: Acinetobacter spp. H064200250; test: as above; format: cell-based, Acinetobacter sp.; conditions: LEV R, CIP R, MRP R, IMP I
[3] = test system: A. baumannii A489; test: as above; format: cell-based; conditions: LEV R, CIP R, MRP R, IMP R, AMK R, TET R
[4] = test system: A. baumannii A390; test: as above; format: cell-based; conditions: LEV R, CIP R, MRP R, IPM I, AMK R, TET I
[5] = test system: A. baumannii A472; test: as above; format: cell-based; conditions: LEV R, CIP R, MRP I, IMP I, AMK R, TET R
[6] = test system: A. baumannii A473; test: as above; format: cell-based; conditions: LEV R, CIP R, MRP R, IMP R, AMK R, TET R
[7] = test system: resistant strains of A. baumannii and one strain of Acinetobacter sp.; test: MIC without and with sub-inhibitory polymyxin B, whole panel / MIC ranges (Example 4; also strains not listed separately); format: cell-based; conditions: for MIC: Acinetobacter baumannii
[8] = test system: 11 strains of A. baumannii and one strain of Acinetobacter sp.; test: Preliminary MBC without and with sub-inhibitory polymyxin B, whole panel (Example 4; also strains not listed separately); format: cell-based; conditions: Acinetobacter baumannii
[9] = test system: A. baumannii ATCC 19606; test: MIC without and with sub-inhibitory polymyxin B (Example 4); format: cell-based, Acinetobacter baumannii; conditions: Acinetobacter baumannii, ATCC19606, A. baumannii ATCC 19606, without polymyxin B
[10] = test system: Acinetobacter sp. (H064200250); test: as above; format: cell-based; conditions: Acinetobacter, without polymyxin B, read-out: MIC without PB
[11] = test system: A. baumannii A390; test: as above; format: cell-based, Acinetobacter baumannii; conditions: Acinetobacter baumannii, A390, A. baumannii A390, without polymyxin B, read-out: MIC without PB
[12] = test system: A. baumannii A401; test: as above; format: cell-based, Acinetobacter baumannii; conditions: Acinetobacter baumannii, A401, A baumannii A 401, without polymyxin B, read-out: MIC without PB
[13] = test system: A. baumannii A472; test: as above; format: cell-based, Acinetobacter baumannii; conditions: for MIC: Acinetobacter baumannii, A472, A. baumannii A472, without polymyxin B, read-out: MIC without PB
[14] = test system: A. baumannii A473; test: as above; format: cell-based, Acinetobacter baumannii; conditions: Acinetobacter baumannii, A473, A. baumannii A473, without polymyxin B
[15] = test system: A. baumannii A489; test: as above; format: cell-based, Acinetobacter baumannii; conditions: Acinetobacter baumannii, A489, A. baumannii A489, without polymyxin B
[16] = test system: A. baumannii ATCC 19606; test: Preliminary MBC without and with sub-inhibitory polymyxin B (Example 4); format: cell-based, Acinetobacter baumannii; conditions: Acinetobacter baumannii, ATCC19606, read-out: MBC without PB, A. baumannii ATCC 19606, without polymyxin B, preliminary MBC
[17] = test system: A. baumannii J2; test: as above; format: cell-based, Acinetobacter baumannii; conditions: Acinetobacter baumannii, J2, read-out: MBC without PB
[18] = test system: Acinetobacter sp. (H064200250); test: as above; format: cell-based; conditions: Acinetobacter, read-out: MBC without PB
Procedure: The plates were incubated for 18-20 hours at 37° C. The MBC was read as the lowest concentration at which colony growth was ca. 90% less than the positive control (i.e. usually where single colonies or no colonies were observed).

[19] = test system: A. baumannii A329; test: as above; format: cell-based, Acinetobacter baumannii; conditions: Acinetobacter baumannii
[20] = test system: A. baumannii A390; test: as above; format: cell-based, Acinetobacter baumannii; conditions: Acinetobacter baumannii, A390, read-out: MBC without PB
[21] = test system: A. baumannii A401; test: as above; format: cell-based, Acinetobacter baumannii; conditions: Acinetobacter baumannii
[22] = test system: A. baumannii A472; test: as above; format: cell-based, Acinetobacter baumannii; conditions: Acinetobacter baumannii
[23] = test system: A. baumannii A489; test: as above; format: cell-based, Acinetobacter baumannii; conditions: Acinetobacter baumannii
[24] = test system: B. anthracis; test: microbe, parasite or virus in culture; format: cell-based; conditions: Bacillus anthracis, read-out: MIC B. anthracis
[25] = test system: F. tularensis; test: microbe, parasite or virus in culture; format: cell-based; conditions: Francisella tularensis, read-out: MIC F. tularensis
[26] = test system: B. abortus; test: microbe, parasite or virus in culture; format: cell-based; conditions: Brucella abortus, read-out: MIC B. abortus
[27] = test system: B. pseudomallei; test: microbe, parasite or virus in culture; format: cell-based; conditions: Burkholderia pseudomallei, read-out: MIC B. pseudomallei
[28] = test system: A. baumannii A 401; test: MIC determination for Acinetobacter strains (Example 3); format: cell-based; conditions: A401, LEV R, CIP R, AMK R, TET R
[29] = test system: A. baumannii A329; test: MIC without and with sub-inhibitory polymyxin B (Example 4); format: cell-based, Acinetobacter baumannii; conditions: Acinetobacter baumannii, A329, read-out: MIC +0.06 μg/ml PB, read with alamar blue, A. baumannii A329; +0.06 μg/ml polymyxin B; 2nd experiment; MIC read with alamar blue
[30] = test system: A. baumannii A387; test: as above; format: cell-based, Acinetobacter baumannii; conditions: Acinetobacter baumannii, A387, A. baumannii A387; without polymyxin B; 2nd experiment; visual reading; read-out: MIC without PB
[31] = test system: A. baumannii A387; test: Preliminary MBC without and with sub-inhibitory polymyxin B (Example 4); format: cell-based, Acinetobacter baumannii; conditions: Acinetobacter baumannii, A387, A. baumannii A387, without polymyxin B, 2nd experiment, read-out: MBC without PB
[32] = test system: A. baumannii A473; test: as above; format: cell-based, Acinetobacter baumannii; conditions: Acinetobacter baumannii, A473, A. baumannii A473, without polymyxin B, read-out: MBC without PB
[33] = NCTC13301, A. baumannii NCTC 13301, without polymyxin B, 2nd experiment, visual reading, read-out: MIC without PB
[34] = 1st experiment, read-out: MIC without PB
[35] = 2nd experiment, visual reading, read-out: MIC without PB
[36] = Acinetobacter spp. H064200250 (OXA51), 2nd experiment, visual reading
[37] = Acinetobacter spp. H064200250, 1st experiment
[38] = 2nd experiment, MIC read with alamar blue, read-out: MIC without PB, read with alamar blue

COc1c(N2C[C@@H]3CCCN[C@@H]3C2)c(F)cc2c(=O)c(C(=O)O)cn(C3CC3)c12 [Moxifloxacin, reference compound]
MIC [1]: 0.5 µg/mL (≈ 1.25 µM)
MIC [2]: 16 µg/mL (≈ 39.9 µM)
MIC [3]: 16 µg/mL (≈ 39.9 µM)
MIC [4]: 16 µg/mL (≈ 39.9 µM)
MIC [5]: 16 µg/mL (≈ 39.9 µM)
MIC [6]: 16 µg/mL (≈ 39.9 µM)
fold greater activity (fold lower MIC) in presence of polymyxin B compared to without polymyxin B [7]: not significantly affected
MIC [7, 33]: 64 µg/mL (≈ 159 µM)
MIC ([7]; without polymyxin B, 2nd experiment, 11 strains, read-out: MIC range without PB 14-10-2008 n = 11): 8 to 64 µg/mL (≈ 19.9 to 159 µM)
MBC ([8]; NCTC13301, read-out: MBC without PB, A. baumannii NCTC 13301, without polymyxin B, 1st experiment): 32 µg/mL (≈ 79.7 µM)
MBC ([8]; NCTC13301, read-out: MBC without PB, A. baumannii NCTC 13301, without polymyxin B, 2nd experiment): 64 µg/mL (≈ 159 µM)
MBC ([8]; read-out: MBC without PB, A. baumannii A14, without polymyxin B, 1st experiment): 32 µg/mL (≈ 79.7 µM)
MBC ([8]; read-out: MBC without PB, A. baumannii A14, without polymyxin B, 2nd experiment): 32 µg/mL (≈ 79.7 µM)
MIC [9, 34]: 0.5 µg/mL (≈ 1.25 µM)
MIC [9, 35]: 1 µg/mL (≈ 2.49 µM)
MIC [10, 36]: 16 µg/mL (≈ 39.9 µM)
MIC [10, 37]: 16 µg/mL (≈ 39.9 µM)
MIC ([11]; 1st experiment): 16 µg/mL (≈ 39.9 µM)
MIC ([11]; 2nd experiment, visual reading): 16 µg/mL (≈ 39.9 µM)
MIC ([12]; 2nd experiment, visual reading): 16 µg/mL (≈ 39.9 µM)
MIC ([13]; 1st experiment): 16 µg/mL (≈ 39.9 µM)
MIC ([13]; 2nd experiment, visual reading): 16 µg/mL (≈ 39.9 µM)
MIC [14, 34]: 16 µg/mL (≈ 39.9 µM)
MIC [15, 34]: 16 µg/mL (≈ 39.9 µM)
MIC [15, 35]: 16 µg/mL (≈ 39.9 µM)
MBC ([16]; 2nd experiment): 1 µg/mL (≈ 2.49 µM)
MBC ([16]; 1st experiment): 0.5 µg/mL (≈ 1.25 µM)
MBC [17]: 32 µg/mL (≈ 79.7 µM)
MBC [18]: 16 µg/mL (≈ 39.9 µM)
MBC ([19]; A329, read-out: MBC without PB, A. baumannii A329, without polymyxin B, 1st experiment): 64 µg/mL (≈ 159 µM)
MBC ([19]; A329, read-out: MBC without PB, A. baumannii A329, without polymyxin B, 2nd experiment): 32 µg/mL (≈ 79.7 µM)
MBC [20]: 16 µg/mL (≈ 39.9 µM)
MBC ([21]; A401, read-out: MBC without PB): 16 µg/mL (≈ 39.9 µM)
MBC ([22]; A472, read-out: MBC without PB, A. baumannii A472, without polymyxin B, 2nd experiment): 16 µg/mL (≈ 39.9 µM)
MBC ([23]; A489, read-out: MBC without PB, A. baumannii A489, without polymyxin B, 2nd experiment): 16 µg/mL (≈ 39.9 µM)

Cc1c(-c2cccc(N)c2)ccn2c(=O)c(C(=O)O)cc(C3CC3)c12 [Compound 9, 8-(3-amino-phenyl)-1-cyclopropyl-9-methyl-4-oxo-quinolizine-3-carboxylic acid]
MIC [24]: 0.06 µg/mL (≈ 0.179 µM)
MIC [25]: 0.125 µg/mL (≈ 0.374 µM)
MIC [26]: 0.25 µg/mL (≈ 0.748 µM)
MIC [27]: 0.5 µg/mL (≈ 1.5 µM)

C[C@@H](O)[C@H]1C(=O)N2C(C(=O)O)=C(S[C@@H]3CN[C@H](C(=O)N(C)C)C3)[C@H](C)[C@H]12 [Meropenem, reference compound]
MIC [2]: 32 µg/mL (≈ 83.4 µM)
MIC [3]: 16 µg/mL (≈ 41.7 µM)
MIC [4]: 32 µg/mL (≈ 83.4 µM)
MIC [28]: 32 µg/mL (≈ 83.4 µM)
MIC [5]: 8 µg/mL (≈ 20.9 µM)
MIC [6]: 16 µg/mL (≈ 41.7 µM)
MIC ([7]; NCTC13301, A. baumannii NCTC 13301, without polymyxin B, 1st experiment, read-out: MIC without PB): 32 µg/mL (≈ 83.4 µM)
MIC [7, 33]: 64 µg/mL (≈ 167 µM)
MIC ([7]; read-out: MIC range without PB 01-10-2008 n = 8, without polymyxin B, 1st experiment, 8 strains): 1 to 32 µg/mL (≈ 2.61 to 83.4 µM)
MBC ([8]; NCTC13301, A. baumannii NCTC 13301, without polymyxin B, 2nd experiment, read-out: MBC without PB): 64 µg/mL (≈ 167 µM)
MIC ([9]; 2nd experiment, second reading marked *, mark not explained, read-out: MIC without PB, value in parentheses marked *): 64 µg/mL (≈ 167 µM)
MIC [10, 36]: 16 µg/mL (≈ 41.7 µM)
MIC [10, 37]: 32 µg/mL (≈ 83.4 µM)
MIC [29]: 64 µg/mL
MIC [30]: 8 µg/mL (≈ 20.9 µM)
MIC ([11]; 1st experiment): 32 µg/mL (≈ 83.4 µM)
MIC ([11]; 2nd experiment, visual reading): 32 µg/mL (≈ 83.4 µM)
MIC ([12]; 1st experiment): 32 µg/mL (≈ 83.4 µM)
MIC ([12]; 2nd experiment, visual reading): 16 µg/mL (≈ 41.7 µM)
MIC ratio without/with polymyxin B ([13]; A. baumannii A472, ratio MIC without PB to MIC + PB, PB […], 2nd experiment): ≥ 64 µg/mL
MIC ([13]; 1st experiment): 8 µg/mL (≈ 20.9 µM)
MIC ([13]; 2nd experiment, visual reading): 8 µg/mL (≈ 20.9 µM)
MIC [14, 34]: 16 µg/mL (≈ 41.7 µM)
MIC [14, 38]: 32 µg/mL (≈ 83.4 µM)
MIC [14, 35]: 16 µg/mL (≈ 41.7 µM)
MIC [15, 34]: 16 µg/mL (≈ 41.7 µM)
MIC [15, 38]: 32 µg/mL (≈ 83.4 µM)
MIC [15, 35]: 16 µg/mL (≈ 41.7 µM)
MBC ([18]; Acinetobacter spp. H064200250 (OXA51), without polymyxin B, 2nd experiment, preliminary MBC): 16 µg/mL (≈ 41.7 µM)
MBC ([18]; Acinetobacter spp. H064200250, without polymyxin B, preliminary MBC, 1st experiment): 16 µg/mL (≈ 41.7 µM)
MBC [31]: 8 µg/mL (≈ 20.9 µM)
MBC ([21]; A401, A baumannii A 401, without polymyxin B, preliminary MBC, 1st experiment, read-out: MBC without PB): 16 µg/mL (≈ 41.7 µM)
MBC ([22]; A472, A. baumannii A472, without polymyxin B, 1st experiment, read-out: MBC without PB): 8 µg/mL (≈ 20.9 µM)
MBC ([22]; A472, A. baumannii A472, without polymyxin B, 2nd experiment, read-out: MBC without PB): 8 µg/mL (≈ 20.9 µM)
MBC ([32]; 1st experiment): 64 µg/mL (≈ 167 µM)
MBC ([32]; 2nd experiment): 16 µg/mL (≈ 41.7 µM)
MBC ([23]; A489, A. baumannii A489, without polymyxin B, 1st experiment, read-out: MBC without PB): 8 µg/mL (≈ 20.9 µM)
MBC ([23]; A489, A. baumannii A489, without polymyxin B, 2nd experiment, read-out: MBC without PB): 16 µg/mL (≈ 41.7 µM)
